# What was measured:
# Type in all cases: in vivo, mouse
# Aβ plaques [1] = assay: MRI-detected plaques in brains of AD transgenic mice with anti-APP SPIONs; conditions: for Decline in number of plaques per brain: 100 ppm in diet, 1 year, MRI
# Excerpt: (§1) B6C3 transgenics (Jackson Laboratory) were used. These double transgenic mice express a chimeric mouse/human amyloid precursor protein (Mo/HuAPP695swe) and a mutant human presenilin 1 (PS1-dE9) both directed to CNS neurons. Both mutations are associated with early-onset Alzheimer's disease. The “humanized” Mo/HuAPP695swe transgene allows the mice to secrete a human Ab peptide. The included Swedish mutations (K595N/M596L) elevate the amount of Ab produced from the transgene by favoring processing through the beta-secretase pathway. Transgenic mice develop beta-amyloid deposits in brain by six to seven months of age. These animals also display a slight alteration in their tail phenotype that is believed to be due to the mixed genetic background of the strain and is not related to transgene expression. These mice are useful in studies of neurological disorders of the brain, specifically Alzheimer's disease, amyloid plaque formation.
# (§2) Female B6C3 transgenics were used. Animals were housed 5/cage and fed ad libitum. Groups included controls, RV groups, compound 1 groups and compound 2 groups. Each group was comprised of 15 animals. Diets contained standard dyes to provide different colors to each diet to avoid confusion during the 12 months feeding.
# Transgenic mice carrying mutated APP and presenilin-1 were fed this diet. It was observed early on that compound 2a (4cc) was toxic. Therefore, it was discontinued in the study. […] Twenty four hrs before sacrifice, SPIONs were injected via the tail vein. […]
# Pilot MRI studies of this line of transgenic mice were carried out at three magnetic field strengths: at 4.7 Tesla, at the UNM BRaIN Imaging Center, and at 9.4 and 16.4 Tesla at the Center for Magnetic Resonance Research at the University of Minnesota. […] One hundred ninety two MRI slices were analyzed by counting plaques in each slice, and by computing the statistical significance of the intensity in the hypointense plaque core versus the noise level in the surrounding tissue. […]
# activated microglia = assay: Activated microglia density and radial distribution in brains of AD transgenic mice (Iba-1 staining); conditions: for Areal density of activated microglia: 100 ppm in diet, 1 year, mean±S.E.M., p<0.001, untreated 86.1±2.8; for Decrease in areal density of activated microglia: vs untreated transgenic mice
# Excerpt: as §1, §2
# (§3) Transgenic mice carrying mutated APP and presenilin-1 were fed this diet. It was observed early on that compound 2a (4cc) was toxic. Therefore, it was discontinued in the study. […] Twenty four hrs before sacrifice, SPIONs were injected via the tail vein. […] The MRI conspicuity of the plaques increased from a Z-score (signal to noise ratio) of 4.6±0.6 to 8.0±0.1 when the plaque Z-score was compared in control AD mice with AD mice treated with nanoparticles. The number of MRI-visible plaques per brain increased from 355±39 in the control AD mice, to 668±52 in the SPION treated mice.
# Paraffin embedded brain sections were rehydrated by progressively immersing them in Hemo-De, 95% EtOH, 70% EtOH and finally 0.1M PBS. Antigens were retrieved by placing the slides in 6.0 pH 0.01 M sodium citrate buffer with heating to 90° C. for 20 minutes. After cooling to r.t., the slides were stained with Thioflavin-S as above. After rehydrating with 0.1M PBS for 5 minutes, the slides were blocked with 0.1M PBS containing 6% normal donkey serum for 45 minutes and then incubated overnight with rabbit anti-Iba-1, diluted 1:400, at 4° C. in a humidity chamber. The next day the slides were washed three times with 0.1M PBS. The secondary antibody, rhodamine-conjugated donkey anti-rabbit IgG, was diluted with 0.5% BSA in 0.1M PBS to 1:200 under light-restricted conditions. 100 μl of this secondary antibody solution was applied to each brain slice for 2 h in a light-tight container at r.t. The slides were then rinsed three times with 0.1M PBS and twice with dd water. Vectashield with DAPI was applied and the slides were cover-slipped and sealed for imaging. Images were taken with a Zeiss Axioskop 2 equipped with a Zeiss AxioCam and a Prior Lumen 200 fluorescence lamp (Cancer Center Fluorescence Microscopy Facility, University of New Mexico, Albuquerque, N. Mex., USA, http://hsc.unm.edu/crtc/microscopy/). Images were processed using Slidebook (Denver, Colo.). Confocal images were taken and processed using Zen (Carl Zeiss MicroImaging GmbH, Germany).
# (§4) Plaque number and area were measured on the CCD images of the IHC brain sections with the aid of ImageJ software (NIH) by thresholding and conversion of the images to binary images. The radial sizes of the plaques were measured using ImageJ on Thioflavin-S stained fluorescence micrographs of brain sections. The radial distributions of activated microglia were measured on spatially calibrated fluorescence micrographs of Iba-1 stained brain sections using the center of the plaque as the local point of reference and the center of the DAPI-stained microglial nucleus as the endpoint. […]
# Aβ plaques [2] = assay: Areal density of Aβ plaques in brains of AD transgenic mice (Thioflavin-S histology); conditions: for Plaque areal density: 100 ppm in diet, 1 year, mean±S.E.M., p<0.001, untreated 79.8±2.4; for Decrease in plaque areal density: vs untreated transgenic mice
# Excerpt: as §1, §2, §3
# Paraffin embedded brain sections were rehydrated by progressively immersing them in Hemo-De, 95% EtOH, 70% EtOH and finally 0.1M PBS. […] Images were taken with a Zeiss Axioskop 2 equipped with a Zeiss AxioCam and a Prior Lumen 200 fluorescence lamp (Cancer Center Fluorescence Microscopy Facility, University of New Mexico, Albuquerque, N. Mex., USA, http://hsc.unm.edu/crtc/microscopy/). […]
# as §4
Structure (SMILES),Decline in number of plaques per brain (Aβ plaques [1]),Proximal halo of microglia around plaques (activated microglia) [µm],Areal density of activated microglia (activated microglia) [microglia/mm^2],Decrease in areal density of activated microglia (activated microglia) [%],Plaque areal density (Aβ plaques [2]) [plaques/mm^2],Decrease in plaque areal density (Aβ plaques [2]) [%],"Total number of MRI-determined plaques (Aβ plaques [1]; fed over entire life span, anti-APP SPIONs for 24 hours, SPION control n=668)"
"Oc1ccc(/C=C/c2cc(O)cc(O)c2)cc1 [Resveratrol, reference compound]",3-6 fold,17,34.7±1.8,60,51.8±2.4,35,
COc1ccc(/C=C/c2ccccc2F)cc1 [1a (LD-55)],3-6 fold,24,44.2±3.2,49,55.4±4.8,31,209

# Reference: patent US20130178536A1, “SUBSTITUTED CIS- AND TRANS-STILBENES AS THERAPEUTIC AGENTS” (STC.UNM, priority 2006, published 2013)
